Data set [1] deals with T1, RBP4 (Homo sapiens (Human), UniProt P02753). Put plainly: Scintillation proximity (SPA) RBP4 binding assay. Particulars: 10 nM 3H-Retinol, 50 nM biotinylated RBP4. The protocol:
Scintillation Proximity RBP4 Binding Assay
Untagged human RBP4 purified from urine of tubular proteinuria patients was purchased from Fitzgerald Industries International. It was biotinylated using the EZ-Link Sulfo-NHS-LC-Biotinylation kit from Pierce following the manufacturer's recommendations. Binding experiments were performed in 96-well plates (OptiPlate, PerkinElmer) in a final assay volume of 100 μl per well in SPA buffer (1×PBS, pH 7.4, 1 mM EDTA, 0.1% BSA, 0.5% CHAPS). The reaction mix contained 10 nM ^3H-Retinol (48.7 Ci/mmol; PerkinElmer), 0.3 mg/well Streptavidin-PVT beads, 50 nM biotinylated RBP4 and a test compound. Nonspecific binding was determined in the presence of 20 μM of unlabeled retinol. The reaction mix was assembled in the dark under dim red light. The plates were sealed with clear tape (TopSeal-A: 96-well microplate, PerkinElmer), wrapped in the aluminum foil, and allowed to equilibrate 6 hours at room temperature followed by overnight incubation at +4° C. Radiocounts were measured using a TopCount NXT counter (Packard Instrument Company).
On the technique in general: SPA uses beads or plates that emit light when radiolabelled molecules are held near them.

Data set [2] concerns the target T2, RBP4-TTR interaction (Homo sapiens (Human), UniProt P02753). Put plainly: TR-FRET (HTRF) assay for retinol-induced RBP4-TTR interaction. It is filed as biochemical. To be noted: in the presence of 1 μM retinol; read-out: HTRF assay for antagonists of RBP4-TTR interaction: IC50. The text has this:
Binding of a desired RBP4 antagonist displaces retinol and induces hindrance for RBP4-TTR interaction resulting in the decreased FRET signal (FIG. 7). Bacterially expressed MBP-RBP4 and untagged TTR were used in this assay. […] Following cell lysis, recombinant RBP4 was purified from the soluble fraction using the ACTA FPLC system (GE Healthcare) equipped with the 5-ml the MBP Trap HP column. Human untagged TTR was purchased from Calbiochem. Untagged TTR was labeled directly with Eu^3+ Cryptate-NHS using the HTRF Cryptate Labeling kit from CisBio following the manufacturer's recommendations. HTRF assay was performed in white low volume 384 well plates (Greiner-Bio) in a final assay volume of 16 μl per well. The reaction buffer contained 10 mM Tris-HCl pH 7.5, 1 mM DTT, 0.05% NP-40, 0.05% Prionex, 6% glycerol, and 400 mM KF. […] Titration of test compounds in this assay was conducted in the presence of 1 μM retinol. All reactions were assembled in the dark under dim red light and incubated overnight at +4° C. wrapped in aluminum foil. TR-FRET signal was measured in the SpectraMax M5e Multimode Plate Reader (Molecular Device). […] The TR-FRET signal was expressed as the ratio of fluorescence intensity: Flu665/Flu620×10,000.
(In general: In TR-FRET formats the signal depends on donor and acceptor labels being close together.)

Data set [3] addresses T1, RBP4. Particulars: cited from earlier work.
The target in data set [4] is T2, RBP4-TTR interaction. To be noted: cited from earlier work.
Data set [5] has as its target serum RBP4 and retinol (Rattus norvegicus (Rat), UniProt P04916). Particulars: in vivo; cited from earlier work.
For data set [6], the system named is ocular all-trans retinol uptake. Particulars: in vivo; cited from earlier work.
Data set [7] relates to Abca4−/− mice. To be noted: animal model of excessive bisretinoid accumulation; cited from earlier work.
The test system of data set [8] is many cell types, including the retinal pigment epithelium cells. To be noted: cited from earlier work.
For data set [9] the following is noted: in vivo; cited from earlier work.

Turning to `COCCN1CCc2c(C(=O)N3CCC(c4cccc(F)c4C(F)(F)F)CC3)n[nH]c2C1` [Compound 73], the IC50 was 8.5 nM in data set [1] and 30.6 nM in data set [2].
Take `CC1=C(/C=C/C(C)=C/C=C/C(C)=C/C(=O)Nc2ccc(O)cc2)C(C)(C)CCC1` [fenretinide, N-(4-hydroxy-phenyl)retinamide]: in data set [3], the “binding to RBP4” value was “bind to RBP4” and the “displacement of all-trans retinol from RBP4” value is on record as “displace all-trans retinol from RBP4”. Also, in data set [4], the “disruption of RBP4-TTR interaction” value is recorded as “disrupt the RBP4-TTR interaction”. Moreover, the “serum RBP4 and retinol” value in data set [5] is “reduce serum RBP4 and retinol”. The “ocular all-trans retinol uptake and visual cycle” value in data set [6] was “inhibit ocular all-trans retinol uptake and slow down the visual cycle”. Further, in data set [7], the A2E production entry is listed as “reduced A2E production”. For the same compound, the induction of apoptosis result in [8] is listed as “extremely active inducer of apoptosis”. Moreover, the teratogenicity entry in [9] is “teratogenic”.

For orientation: IC50 means the point on the concentration scale where inhibition reaches its midpoint.
